Assay results taken from the NIST ThermoML archive (doi:10.1021/je101144k).

Legend:
[1] = 101.33 kPa, Liquid; for viscosity: Concentric cylinders viscometry; for mass density: Pycnometric method
[2] = molar heat capacity at constant pressure; details: 101.33 kPa, Liquid, Small sample (50 mg) DSC

NCCO [2-aminoethan-1-ol]
Details | mass density, 303.15 K [kg/m3] | mass density, 313.15 K [kg/m3] | mass density, 323.15 K [kg/m3] | molar heat capacity at constant pressure, 303.15 K [J/K/mol] | molar heat capacity at constant pressure, 313.15 K [J/K/mol] | molar heat capacity at constant pressure, 323.15 K [J/K/mol] | viscosity, 303.15 K [mPa·s] | viscosity, 313.15 K [mPa·s] | viscosity, 323.15 K [mPa·s]
[1] | 1008.7 | 1000.4 | 992.5 | – | – | – | 15.36 | 10.26 | 7.19
[2] | – | – | – | 163.7 | 167.98 | 172.25 | – | – | –
